Values of other authors in patent publication US20190321375A1, “METHOD OF ADMINISTERING A NE[…] EFFECT ELECTROENCEPHALOGRAPHIC (EEG) BURST SUPPRESSION” (MARINUS PHARMACEUTICALS, INC., priority 2016, published 2019).
Read-outs that look alike come from different tables or passages of the source.

How the values were obtained:
patients = settings: induction bolus
[1] = in vivo

SMILES | entry into burst suppression (patients) | half-life (human plasma following oral administration) | Tmax (therapeutic blood levels are reached quickly) | oral availability [1] | half-life (human plasma) [min]
CC(C)c1cccc(C(C)C)c1O [propofol] | can enter burst suppression directly from the awake state |  |  |  | 
CC(=O)[C@H]1CC[C@H]2[C@@H]3CC[C@H]4C[C@](C)(O)CC[C@]4(C)[C@H]3CC[C@]12C [Ganaxolone, 3α-hydroxy, 3β-methyl-5α-pregnan-20-one] |  | approximately 20 hours | short | poor oral availability | 
CC(=O)[C@H]1CC[C@H]2[C@@H]3CC[C@H]4C[C@H](O)CC[C@]4(C)[C@H]3CC[C@]12C [Allopregnanolone, 3α,5α-tetrahydroprogesterone] |  |  |  | poor oral availability | 45
